Reference: ChEMBL document CHEMBL1201862, “PubChem BioAssay data set” (2004)
The source made the active and inactive calls.

Legend:
NADPH oxidase 1 [1] = target: T1, NADPH oxidase 1 (Homo sapiens, UniProt Q9Y5S8); test: Late stage results from the probe development effort to identify inhibitors of NOX1: HEK/293 IC50. [Related pubchem assays: 1796 (Summary AID (NOX1)), 2752 (Primary screen (NOX1 inhibitors, synthesized analogs set 2)), 2664 (Primary screen (NOX1 inhibitors, synthesized analogs)), 1792 (Primary Screen (NOX1)), 2545 (Confirmation screen (NOX1 …; format: functional
NADPH oxidase 1 [2] = target: T1, NADPH oxidase 1; test: potency of NOX1 inhibition in cells – cell-based, luminescence, cherry picks 2, dose response (AID 434997); format: functional
[3] = target: Sphingosine 1-phosphate receptor 2 (Homo sapiens, UniProt O95136); test: Dose Response Cell Based Assay for Antagonists of the S1P2 Receptor. [Related pubchem assays: 856, 736 ]; format: functional
Danio rerio = test: In Vivo Angiogenesis Dose-Response Confirmation. [Related pubchem assays: 732 (Assay preceding this confirmatory assay.)]; format: functional, organism-based
[4] = M. tuberculosis growth inhibition, HTS (AID 449762); format: functional
[5] = microbe, parasite or virus in culture; format: functional; conditions: Mycobacterium tuberculosis
[6] = Luminescent dose response cell-based high throughput screening assay for inhibitors of the Janus kinase 2 mutant JAK2V617F. [Related pubchem assays: 1446 (Primary screen.), 1521 (Confirmation assay.), 1486 (Counter screen.)]; format: functional
[7] = target: E3 ubiquitin-protein ligase Mdm2 (Homo sapiens, UniProt Q00987); test: MDM2-luc reporter signal enhancers, multi-concentration potency testing, MDM2 ubiquitin-protein ligase inhibitor program, whole-cell format, luminescence detection, 384-well microplate (AID 1394); format: functional;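 also: MDM2 E3 inhibitors raise luminescence so EC50 is for signal enhancement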
[8] = target: Bifunctional protein GlmU (Mycobacterium tuberculosis, UniProt P9WMN3); test: Inhibitors of Mycobacterial Glucosamine-1-phosphate acetyl transferase (GlmU). Secondary screen.; parameters: species or system Mycobacterium tuberculosis H37Rv
[9] = target: Heat shock protein HSP 90-alpha (Homo sapiens, UniProt P07900); format: functional, organism-based
[10] = IC50 of insulin release inhibition, rat insulinoma INS-1E line, 5 mM glucose, cell-based (AID 1117331); format: functional
[11] = Potency on glucagon-like peptide 1 release, dose-response in NCI-H716 cell line, half maximal inhibitory concentration (AID 1117344); format: functional, cell-based

T1 sequence (Q9Y5S8 whole entry): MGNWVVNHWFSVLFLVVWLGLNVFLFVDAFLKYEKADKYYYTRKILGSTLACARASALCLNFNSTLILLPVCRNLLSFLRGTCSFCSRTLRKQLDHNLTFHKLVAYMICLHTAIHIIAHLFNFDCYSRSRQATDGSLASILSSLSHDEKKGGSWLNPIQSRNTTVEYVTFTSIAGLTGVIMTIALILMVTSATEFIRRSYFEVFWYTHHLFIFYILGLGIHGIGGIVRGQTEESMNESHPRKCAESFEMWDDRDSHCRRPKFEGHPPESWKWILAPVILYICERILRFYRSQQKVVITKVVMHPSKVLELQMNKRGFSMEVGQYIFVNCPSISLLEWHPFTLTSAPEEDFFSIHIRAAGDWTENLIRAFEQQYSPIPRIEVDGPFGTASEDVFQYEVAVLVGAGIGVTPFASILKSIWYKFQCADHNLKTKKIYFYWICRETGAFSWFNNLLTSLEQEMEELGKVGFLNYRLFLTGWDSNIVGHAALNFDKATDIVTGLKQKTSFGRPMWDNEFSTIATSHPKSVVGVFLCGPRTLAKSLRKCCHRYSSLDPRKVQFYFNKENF
Sequence of Sphingosine 1-phosphate receptor 2 (O95136 whole entry): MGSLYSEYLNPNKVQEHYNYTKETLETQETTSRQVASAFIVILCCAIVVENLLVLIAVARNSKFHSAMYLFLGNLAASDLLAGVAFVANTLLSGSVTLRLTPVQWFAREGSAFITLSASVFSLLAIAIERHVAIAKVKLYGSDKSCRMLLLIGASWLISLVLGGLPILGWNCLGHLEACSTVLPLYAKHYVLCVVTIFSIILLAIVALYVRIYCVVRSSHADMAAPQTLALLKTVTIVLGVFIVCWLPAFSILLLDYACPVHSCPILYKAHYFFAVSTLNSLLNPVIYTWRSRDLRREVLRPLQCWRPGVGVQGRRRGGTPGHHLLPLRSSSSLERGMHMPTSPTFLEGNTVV
Sequence of E3 ubiquitin-protein ligase Mdm2 (Q00987 whole entry): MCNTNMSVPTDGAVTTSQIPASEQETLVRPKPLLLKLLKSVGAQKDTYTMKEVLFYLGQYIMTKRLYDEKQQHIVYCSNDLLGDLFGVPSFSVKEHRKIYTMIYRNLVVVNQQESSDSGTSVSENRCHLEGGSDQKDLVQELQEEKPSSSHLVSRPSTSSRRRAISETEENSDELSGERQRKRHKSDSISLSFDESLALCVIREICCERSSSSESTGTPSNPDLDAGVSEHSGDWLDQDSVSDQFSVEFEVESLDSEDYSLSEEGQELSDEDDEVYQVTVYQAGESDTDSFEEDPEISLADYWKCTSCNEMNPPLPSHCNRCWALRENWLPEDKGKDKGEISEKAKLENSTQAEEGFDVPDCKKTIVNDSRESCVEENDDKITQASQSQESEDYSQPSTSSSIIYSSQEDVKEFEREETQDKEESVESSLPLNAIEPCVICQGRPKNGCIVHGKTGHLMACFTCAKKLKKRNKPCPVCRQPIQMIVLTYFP
Sequence of Bifunctional protein GlmU (P9WMN3 whole entry): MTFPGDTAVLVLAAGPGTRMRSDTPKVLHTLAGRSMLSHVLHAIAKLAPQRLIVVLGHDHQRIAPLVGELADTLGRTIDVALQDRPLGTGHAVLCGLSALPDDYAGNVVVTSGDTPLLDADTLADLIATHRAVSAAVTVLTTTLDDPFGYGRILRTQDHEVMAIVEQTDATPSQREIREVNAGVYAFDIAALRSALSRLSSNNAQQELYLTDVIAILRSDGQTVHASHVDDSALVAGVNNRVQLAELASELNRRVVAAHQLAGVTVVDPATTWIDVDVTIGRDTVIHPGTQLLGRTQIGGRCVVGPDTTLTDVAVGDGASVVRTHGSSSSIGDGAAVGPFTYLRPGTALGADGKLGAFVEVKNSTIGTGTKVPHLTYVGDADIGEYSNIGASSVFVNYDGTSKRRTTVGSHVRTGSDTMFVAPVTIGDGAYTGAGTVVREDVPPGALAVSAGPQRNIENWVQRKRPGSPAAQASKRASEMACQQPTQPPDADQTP

CN(C)c1ccc(NC(=O)Nc2ccc(OCc3ccccc3)cc2)cc1
IC50 (NADPH oxidase 1 [1]): 2.37 µM (active) | IC50 (NADPH oxidase 1 [2]): 0.23 µM (active)

Cc1nc(-c2cccs2)sc1C(=O)Nc1ccc(F)cc1
IC50 [3]: > 30 µM (not active)

Cc1cccc2c1NC(=O)/C2=C1\Nc2ccccc2C1=O
IC50 (Danio rerio): 1.23 µM (active)

CCOc1cc(/C=N\NC(=O)Cn2nc([N+](=O)[O-])cc2C)ccc1OCc1cccc2ccccc12
IC50 [4]: > 100 µM (active) | CC50 [5]: > 40 µM (active)

CN(C)C(=S)SSC(=S)N(C)C [THIRAM]
IC50 [6]: 0.223 µM (active) | EC50 [7]: 0.18 µM (active) | IC50 [8]: 89.3 µM (active) | AC50 [9]: 7.74 µM (active) | IC50 [10]: > 33.3 µM (inactive) | IC50 [11]: > 40 µM (inactive)
